Test results reported in ChEMBL document CHEMBL1764965, “Contribution of cinnamic acid analogues in rosmarinic acid to inhibition of snake venom induced hemorrhage” (Bioorg Med Chem, 2011).

Species: Mus musculus
Test: cells; call rule not given here
Assay type: functional, organism-based, ddY
[1] = Mus musculus, ddY, read-out: IC50

Structure (SMILES) | IC50 [1] [nM] | IC50
O=C(C=Cc1ccc(O)c(O)c1)O[C@H](Cc1ccc(O)c(O)c1)C(=O)O (mixture of isomers) [(E/Z)-ROSMARINIC ACID] | 600 | 
O=C(O)/C=C/c1ccc(O)cc1O | 210 | 
O=C(O)/C=C/c1ccc(O)cc1 [COUMARIC ACID] | 190 | 
O=C(O)/C=C/c1ccc(O)c(O)c1 [CAFFEIC ACID] | 190 | 
O=C(/C=C/c1ccc(O)c(O)c1)O[C@H](Cc1ccc(O)c(O)c1)C(=O)O [ROSMARINIC ACID] | 150 | 
O=C(O)/C=C/C=C/c1ccccc1 [JUAREZIC ACID] | 220 | 
COC(=O)[C@@H](Cc1ccc(O)c(O)c1)OC(=O)C=Cc1ccc(O)c(O)c1 (mixture of isomers) [ROSMARINIC ACID METHYL ESTER] |  | Not Active
O=C(O)CCc1ccc(O)c(O)c1 [DIHYDROCAFFEIC ACID] |  | Not Active
O=C(O)/C=C/c1ccccc1O [O-COUMARIC ACID] | 190 | 
O=C(CCc1ccc(O)c(O)c1)O[C@H](Cc1ccc(O)c(O)c1)C(=O)O |  | Not Active
COc1cc(CC(O)C(=O)O)ccc1O (stereo unspecified) |  | Not Active
COc1ccc(/C=C/C(=O)O)cc1OC [O,O'-DIMETHYLCAFFEIC ACID] | 240 | 
C/C=C/C(=O)O [CROTONIC ACID] | 220 | 
O=C(O)/C=C\c1cc(O)c(O)c(O)c1 |  | Not Active
O=C(O)/C=C/c1cc(O)c(O)c(O)c1 | 180 | 
OC/C=C/c1ccccc1 [CINNAMIC ALCOHOL] |  | Not Active
O=C(/C=C/c1ccc(O)c(O)c1)O[C@@H]1C[C@](O)(C(=O)O)C[C@@H](O)[C@H]1O [CHLOROGENIC ACID] | 200 | 
O=C(O)/C=C\c1ccc(O)c(O)c1O |  | Not Active
COc1cc(/C=C/C(=O)O)ccc1O [FERULATE] | 200 | 
O=C(O)/C=C/c1ccccc1 [CINNAMIC ACID] | 180 | 
O=C/C=C/c1ccccc1 [CINNAMALDEHYDE] |  | Not Active
COC(=O)/C=C/c1ccccc1 [E-METHYL CINNAMATE] |  | Not Active
COC(=O)/C=C/c1ccc(O)c(O)c1 [METHYLCAFFEATE] |  | Not Active
O=C(O)/C=C/c1cccc(O)c1 | 180 | 
C/C=C/C=C/C(=O)O [SORBIC ACID] | 210 | 
O=C(O)/C=C\c1cc(O)c(O)cc1O |  | Not Active
